What all share (experiment): KinomeScan profiling
What all share (type): binding

One assay addresses T1, EPHA1 (Homo sapiens, UniProt P21709).
T1 sequence (P21709 26-976): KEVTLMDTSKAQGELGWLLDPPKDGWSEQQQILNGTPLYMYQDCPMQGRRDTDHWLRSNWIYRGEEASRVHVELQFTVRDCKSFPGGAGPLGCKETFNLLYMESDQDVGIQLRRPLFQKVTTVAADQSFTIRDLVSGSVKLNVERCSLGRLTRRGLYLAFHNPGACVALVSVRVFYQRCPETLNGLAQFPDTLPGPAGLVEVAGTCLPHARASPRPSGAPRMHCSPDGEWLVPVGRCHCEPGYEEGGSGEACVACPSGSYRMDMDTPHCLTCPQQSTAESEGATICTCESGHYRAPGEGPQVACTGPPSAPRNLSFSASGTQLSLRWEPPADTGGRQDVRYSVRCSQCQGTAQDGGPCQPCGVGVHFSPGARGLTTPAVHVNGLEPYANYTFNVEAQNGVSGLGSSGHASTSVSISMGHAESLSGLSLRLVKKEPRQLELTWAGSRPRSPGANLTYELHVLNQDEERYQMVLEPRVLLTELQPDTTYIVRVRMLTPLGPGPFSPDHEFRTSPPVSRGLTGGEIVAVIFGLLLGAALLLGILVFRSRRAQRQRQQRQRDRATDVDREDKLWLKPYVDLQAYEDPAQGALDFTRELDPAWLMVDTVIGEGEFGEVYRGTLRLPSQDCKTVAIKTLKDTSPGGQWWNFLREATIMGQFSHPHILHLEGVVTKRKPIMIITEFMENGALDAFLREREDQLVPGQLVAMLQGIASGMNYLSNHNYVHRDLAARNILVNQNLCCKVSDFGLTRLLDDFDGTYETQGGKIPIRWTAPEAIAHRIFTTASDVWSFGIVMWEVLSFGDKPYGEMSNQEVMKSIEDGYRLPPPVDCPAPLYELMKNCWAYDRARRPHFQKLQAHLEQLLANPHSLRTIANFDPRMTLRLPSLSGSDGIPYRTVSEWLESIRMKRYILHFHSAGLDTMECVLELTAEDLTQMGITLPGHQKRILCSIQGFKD
To be noted: EPHA1, 1 μM; read-out: % control. The essentials: (§1)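 At 1 μM in DMSO, compounds are run through a broad 468-member kinase panel. The luminescent read-out is normalised so that vehicle gives 100% and a positive control gives 0%; any kinase falling below 35% is treated as a target.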

In the next assay the target is T2, EPHA8 (Homo sapiens, UniProt P29322).
T2 sequence (P29322 28-1005): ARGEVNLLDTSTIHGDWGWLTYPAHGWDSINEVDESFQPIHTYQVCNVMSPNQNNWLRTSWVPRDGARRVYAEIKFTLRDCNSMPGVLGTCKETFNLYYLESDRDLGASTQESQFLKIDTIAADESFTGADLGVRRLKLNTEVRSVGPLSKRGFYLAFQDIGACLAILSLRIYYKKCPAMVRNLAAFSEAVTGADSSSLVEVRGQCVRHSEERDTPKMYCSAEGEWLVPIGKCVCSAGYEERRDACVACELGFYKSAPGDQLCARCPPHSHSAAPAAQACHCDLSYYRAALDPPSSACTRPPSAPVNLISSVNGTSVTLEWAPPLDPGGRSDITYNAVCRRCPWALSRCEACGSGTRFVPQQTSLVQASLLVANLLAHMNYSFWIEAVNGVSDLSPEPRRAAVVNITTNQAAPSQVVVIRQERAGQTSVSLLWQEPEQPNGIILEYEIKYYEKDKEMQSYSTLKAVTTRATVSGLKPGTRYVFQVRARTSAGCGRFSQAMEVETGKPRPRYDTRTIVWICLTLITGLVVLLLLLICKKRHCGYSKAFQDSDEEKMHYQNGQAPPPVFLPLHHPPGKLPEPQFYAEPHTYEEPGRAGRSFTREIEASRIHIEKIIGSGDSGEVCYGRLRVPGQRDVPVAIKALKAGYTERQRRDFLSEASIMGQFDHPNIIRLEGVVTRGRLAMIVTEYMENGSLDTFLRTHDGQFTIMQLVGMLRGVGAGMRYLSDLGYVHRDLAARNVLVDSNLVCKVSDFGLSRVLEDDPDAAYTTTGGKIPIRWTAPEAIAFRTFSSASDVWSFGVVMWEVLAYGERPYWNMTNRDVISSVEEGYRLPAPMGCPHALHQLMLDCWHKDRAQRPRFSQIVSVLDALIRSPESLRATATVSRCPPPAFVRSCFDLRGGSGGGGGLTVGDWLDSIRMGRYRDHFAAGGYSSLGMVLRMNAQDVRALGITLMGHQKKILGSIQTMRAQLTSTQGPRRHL
To be noted: EPHA8, 1 μM; read-out: % control. In outline: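 Percent-of-control values derive from RLU, calculated as (test − positive)/(negative − positive) × 100, where DMSO defines 100% and a positive control compound defines 0%. Each compound was tested at 1 μM in the 468-kinase panel; sub-35% readings indicate activity.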

A further assay has as its target ERK5 (Homo sapiens, UniProt Q13164). To be noted: ERK5, 1 μM; read-out: % control. In outline:
as §1

The target in the next assay is MTOR (Homo sapiens, UniProt P42345). To be noted: read-out: % control. The essentials:
as §1

The target in the next assay is TLK2 (Homo sapiens, UniProt Q86UE8). To be noted: TLK2, 1 μM; read-out: % control. The essentials:
as §1

The target of a further assay is T3, ULK3 (Homo sapiens, UniProt Q6PHR2).
T3 sequence (Q6PHR2 1-472): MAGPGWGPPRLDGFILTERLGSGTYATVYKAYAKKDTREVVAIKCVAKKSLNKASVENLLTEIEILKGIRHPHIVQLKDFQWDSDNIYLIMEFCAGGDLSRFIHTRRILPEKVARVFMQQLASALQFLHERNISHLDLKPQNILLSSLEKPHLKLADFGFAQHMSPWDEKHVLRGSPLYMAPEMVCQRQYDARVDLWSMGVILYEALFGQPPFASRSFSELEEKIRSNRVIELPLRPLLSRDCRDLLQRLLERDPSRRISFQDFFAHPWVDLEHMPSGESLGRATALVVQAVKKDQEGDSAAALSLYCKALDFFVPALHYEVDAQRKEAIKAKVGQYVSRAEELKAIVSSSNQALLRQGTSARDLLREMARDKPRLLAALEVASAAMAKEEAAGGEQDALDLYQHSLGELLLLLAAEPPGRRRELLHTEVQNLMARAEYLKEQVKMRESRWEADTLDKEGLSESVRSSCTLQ
To be noted: ULK3, 1 μM; read-out: % control. In outline:
as §1

The structures appear in SMILES notation.

TLK2, sequence (Q86UE8 whole entry): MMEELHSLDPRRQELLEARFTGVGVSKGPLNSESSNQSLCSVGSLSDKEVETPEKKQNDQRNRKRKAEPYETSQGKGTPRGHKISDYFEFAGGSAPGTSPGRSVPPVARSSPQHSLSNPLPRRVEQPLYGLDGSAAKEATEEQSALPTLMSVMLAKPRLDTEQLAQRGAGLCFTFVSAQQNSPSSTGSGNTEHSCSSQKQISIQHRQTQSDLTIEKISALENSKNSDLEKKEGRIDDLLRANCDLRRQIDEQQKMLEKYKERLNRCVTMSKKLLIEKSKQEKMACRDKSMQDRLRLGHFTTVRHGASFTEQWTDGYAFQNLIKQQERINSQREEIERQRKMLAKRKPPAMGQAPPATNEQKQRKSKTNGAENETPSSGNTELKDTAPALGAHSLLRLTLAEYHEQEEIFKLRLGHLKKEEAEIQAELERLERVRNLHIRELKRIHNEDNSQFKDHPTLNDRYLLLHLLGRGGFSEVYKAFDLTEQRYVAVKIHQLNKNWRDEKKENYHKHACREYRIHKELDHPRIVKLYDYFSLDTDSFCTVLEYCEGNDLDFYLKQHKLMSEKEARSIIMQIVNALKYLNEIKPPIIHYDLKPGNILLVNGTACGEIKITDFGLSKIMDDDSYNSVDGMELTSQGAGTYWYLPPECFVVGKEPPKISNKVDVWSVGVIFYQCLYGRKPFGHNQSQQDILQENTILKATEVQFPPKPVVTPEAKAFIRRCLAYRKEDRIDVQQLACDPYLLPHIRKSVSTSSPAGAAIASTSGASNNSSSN
ERK5, sequence (Q13164 whole entry): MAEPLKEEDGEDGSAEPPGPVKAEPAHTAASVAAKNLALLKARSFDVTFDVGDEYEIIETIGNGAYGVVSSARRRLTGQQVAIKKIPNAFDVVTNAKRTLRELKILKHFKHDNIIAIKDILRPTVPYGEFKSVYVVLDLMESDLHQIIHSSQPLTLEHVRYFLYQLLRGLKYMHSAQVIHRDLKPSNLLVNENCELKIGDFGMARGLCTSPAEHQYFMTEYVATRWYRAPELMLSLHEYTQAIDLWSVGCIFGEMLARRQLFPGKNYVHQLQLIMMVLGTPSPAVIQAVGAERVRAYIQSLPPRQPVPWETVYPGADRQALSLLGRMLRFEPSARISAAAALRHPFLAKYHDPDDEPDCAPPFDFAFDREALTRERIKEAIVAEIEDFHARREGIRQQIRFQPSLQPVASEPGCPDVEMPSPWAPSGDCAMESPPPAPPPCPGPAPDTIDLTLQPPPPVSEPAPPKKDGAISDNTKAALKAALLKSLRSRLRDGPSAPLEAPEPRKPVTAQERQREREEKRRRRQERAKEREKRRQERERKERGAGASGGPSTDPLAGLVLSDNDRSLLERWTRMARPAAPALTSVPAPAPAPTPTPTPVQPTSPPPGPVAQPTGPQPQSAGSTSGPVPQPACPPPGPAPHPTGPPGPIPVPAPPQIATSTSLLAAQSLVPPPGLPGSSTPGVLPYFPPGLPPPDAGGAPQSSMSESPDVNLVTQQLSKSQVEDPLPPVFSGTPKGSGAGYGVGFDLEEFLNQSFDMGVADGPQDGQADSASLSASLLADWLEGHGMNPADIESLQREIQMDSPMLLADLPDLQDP

As for `CNc1c(-c2cnn([C@H]3CCN(C(C)=O)C[C@@H]3F)c2)cnc2[nH]cc(Cl)c12` [Compound 77, 1-((3S,4S)-4-(4-(3-chloro-4-(methylamino)-1H-pyrrolo[2,3-b]pyridin-5-yl)-1H-pyrazol-1-yl)-3-fluoropiperidin-1-yl)ethan-1-one], the remaining binding at 1 µM at EPHA1 came out at 83%; on EPHA8 it was 94%; on ERK5 it was 100%; at MTOR it was 60%; at TLK2 it was 99%; on ULK3 it was 5.5%.

`CNc1c(-c2ccc(C(=O)N3CCC(N4CCOCC4)CC3)cc2)cnc2[nH]cc(Cl)c12` [Compound 96, (4-(3-chloro-4-(methylamino)-1H-pyrrolo[2,3-b]pyridin-5-yl)phenyl)(4-morpholinopiperidin-1-yl)methanone]: the remaining binding at 1 µM is 81% at EPHA1; 96% on EPHA8; 81% at ERK5; 78% on MTOR; 100% on TLK2; 10% at ULK3.

For `O=C(c1ccc(-c2cnc3[nH]cc(Cl)c3c2NC2CCCC2)cc1)N1CCC(N2CCOCC2)CC1` [Compound 101, (4-(3-chloro-4-(cyclopentylamino)-1H-pyrrolo[2,3-b]pyridin-5-yl)phenyl)(4-morpholinopiperidin-1-yl)methanone], the remaining binding at 1 µM at EPHA1 was 76%; on EPHA8 it was 93%; on ERK5 it was 100%; at MTOR, 95%; at TLK2, 100%; at ULK3, 92%.

Source of the values: patent publication US12275731B2, “Azaindole inhibitors of wild-type and mutant forms of LRRK2” (DANA-FARBER CANCER INSTITUTE, INC., priority 2018, dated 2025).
